How the values were obtained:
[1] = tested on: human PBMC; assay: Immunological cell type enrichment for genes modulated by GA in human PBMC; assay type: in vivo; set-up: Score: scale not given here
Description: Genome-wide expression profiles in cells from three different datasets in two different species (human, mouse) were studied. LIMMA was utilized to identify a genome-wide list of differentially expressed genes induced by GA in the primed and ex vivo stimulated mouse splenocytes, as well as in the THP-1 human monocyte cell line. Repeated-measures ANOVA was utilized to find a genome-wide list of genes modulated by GA in treated MS patients. Advanced enrichment algorithms were then applied to elucidate the pathways and cell types modulated by GA.
In addition to the shared induced effects discussed above, each system and platform clearly captured different aspects of GA's impact on the immune system. […] In human PBMCs, genes associated with immune cell types were modulated early in treatment (by month 3), including certain cell types affected in prior systems, but also distinct cell types, such as megakaryocytes and myeloid progenitors (Table 11).

[2] = assay type: in vivo, human
Description: The Teva Patient Support Program in Mexico has an extensive database. Given that patients can switch between branded and purported generic GA, all patients are kept within the database and are provided with patient support services.
The number of relapses reported by patients in Teva's Patient Support Program on a monthly basis during the years 2012 and 2013 i. It is again clear that when Copaxone alone was in use (i.e. throughout 2012) the overall, as well as per-month number of relapses was lower than that reported when Probioglat was present in the market (i.e. throughout 2013).
These findings have identified significant differences that warrant further investigation, especially in light of the observed clinical effects of Probioglat's introduction. The Teva Patient Support Program in Mexico records numbers of adverse events, including during the years 2012 and 2013 (Table 31; FIG. 46), for which a similar number of patients were tracked (1618 patients in 2012; 1552 in 2013). Probioglat was first introduced in January 2013; subsequently, each time a patient's prescription was filled, it could be with either Probioglat or GA. […] The gene-expression differences observed herein warrant careful investigation, through studies comparing GA to candidate generics in meaningful settings, most comprehensively including clinical trials.

[3] = BASO1.rnk, Upregulated, Cluster 2
[4] = BCELLA1.rnk, Downregulated, Cluster 0
[5] = BCELLA2.rnk, Downregulated, Cluster 0
[6] = BCELLA3.rnk, Downregulated, Cluster 0
[7] = BCELLA4.rnk, Downregulated, Cluster 0
[8] = CMP.rnk, Upregulated, Cluster 4
[9] = EOS2.rnk, Upregulated, Cluster 2
[10] = ERY1.rnk, Upregulated, Cluster 2
[11] = ERY1.rnk, Upregulated, Cluster 4
[12] = ERY2.rnk, Upregulated, Cluster 2
[13] = ERY2.rnk, Upregulated, Cluster 4
[14] = ERY3.rnk, Upregulated, Cluster 2
[15] = ERY3.rnk, Upregulated, Cluster 4
[16] = ERY4.rnk, Upregulated, Cluster 2
[17] = ERY4.rnk, Upregulated, Cluster 4
[18] = ERY5.rnk, Upregulated, Cluster 2
[19] = ERY5.rnk, Upregulated, Cluster 4
[20] = GMP.rnk, Upregulated, Cluster 4
[21] = GRAN1.rnk, Upregulated, Cluster 2
[22] = GRAN2.rnk, Upregulated, Cluster 4
[23] = HSC3.rnk, Upregulated, Cluster 4
[24] = MEGA1.rnk, Upregulated, Cluster 4
[25] = MEGA2.rnk, Upregulated, Cluster 0
[26] = MEGA2.rnk, Upregulated, Cluster 4
[27] = MEP.rnk, Upregulated, Cluster 2
[28] = PRE_BCELL3.rnk, Upregulated, Cluster 2

Substance: glatiramer acetate [Copaxone®]
- Score [1, 3]: 87.3
- p.val [1, 3]: 0.00322
- Score [1, 4]: −19.11
- p.val [1, 4]: 0.002737
- Score [1, 5]: −25.77
- p.val [1, 5]: 0.0004201
- Score [1, 6]: −20.11
- p.val [1, 6]: 0.001385
- Score [1, 7]: −21.51
- p.val [1, 7]: 0.002538
- Score [1, 8]: 23.19
- p.val [1, 8]: 0.002214
- Score [1, 9]: 62.69
- p.val [1, 9]: 0.002286
- Score [1, 10]: 28.25
- p.val [1, 10]: 0.003043
- Score [1, 11]: 45
- p.val [1, 11]: 0.002587
- Score [1, 12]: 32.83
- p.val [1, 12]: 8.43E−05
- Score [1, 13]: 47.25
- p.val [1, 13]: 4.70E−06
- Score [1, 14]: 84.62
- p.val [1, 14]: 0.0002869
- Score [1, 15]: 90.02
- p.val [1, 15]: 0.009061
- Score [1, 16]: 69.44
- p.val [1, 16]: 0.0001417
- Score [1, 17]: 77.38
- p.val [1, 17]: 0.001966
- Score [1, 18]: 64.23
- p.val [1, 18]: 9.88E−07
- Score [1, 19]: 73.42
- p.val [1, 19]: 0.0009808
- Score [1, 20]: 33.13
- p.val [1, 20]: 0.0001427
- Score [1, 21]: 55.17
- p.val [1, 21]: 0.0005577
- Score [1, 22]: 35.18
- p.val [1, 22]: 0.00875
- Score [1, 23]: 45.41
- p.val [1, 23]: 0.0002875
- Score [1, 24]: 38.05
- p.val [1, 24]: 4.66E−09
- Score [1, 25]: 32.43
- p.val [1, 25]: 1.24E−12
- Score [1, 26]: 64.46
- p.val [1, 26]: 4.41E−12
- Score [1, 27]: 30.54
- p.val [1, 27]: 0.009388
- Score [1, 28]: 57.94
- p.val [1, 28]: 3.98E−08
- Numbers of relapses reported ([2]; 2012, only branded GA marketed, 1618 patients): 8
- Adverse Event Rate (per month) ([2]; human, in vivo): 10.4 per month
- Numbers of adverse events reported ([2]; human, in vivo): 125

— patent US20170003277A1 (priority 2015, published 2017)
